Reference: patent publication US12594283B2 (The Medical College of Wisconsin, Inc., priority 2019, dated 2026)
Like-named read-outs stand apart in the source and are kept apart here. Each block holds one molecule with its values, some of them ahead of it.

Legend:
cyt bc1 [1] = details: P. falciparum, Y265S mutations (so in the source); cited from earlier work
MiaPaCa-2 cells = assay: MiaPaCa-2 cell proliferation, IncuCyte live-cell imaging (cell confluence); format: cell-based, human; details: for IC50: Homo sapiens; for antiproliferative effect compared with corresponding Mito-ATO analog: MiaPaCa-2 cells, controls lacking TPP+ (FIG. 9)
Source text: FIG. 1. […] (A) Chemical structures of ATO and Mito-ATO analogs. […] Cell proliferation was monitored in real-time with the continuous presence of indicated treatments until the end of each experiment. […] Dashed lines represent the fitting curves used to determine their IC50 values as indicated.
(§1) The IncuCyte Live-Cell Imaging system (IncuCyte Essen Bioscience Inc., Ann Arbor, MI) was used to monitor cell proliferation.^11-13 As shown in previous publications,^11,12 this imaging system is probe-free and noninvasive, and enables continuous monitoring of cell confluence over several days. The increase in the percentage of cell confluence was used as a surrogate marker of cell proliferation. In a 96-well plate, cells were plated at 1,000 cells per well in triplicates and left to adhere overnight.

MiaPaCa-2 and A549 cells = assay: Cellular uptake by LC-MS/MS; format: cell-based, human; details: Mito10-ATO 0.1 and 1 μM, ATO 1-10 μM; 1, 2, 4 and 24 h
Description: The compounds were extracted according to the published experimental protocol.^11,12 Briefly, cells were washed twice with ice-cold DPBS (Dulbecco's Phosphate Buffered Saline) and harvested. The cell pellet was immediately frozen in liquid nitrogen and stored at −80° C. For the extraction, the pellet was homogenized in 200 μl DPBS (2 μl were taken for protein assay) and extracted twice with a dichloromethane:methanol (2:1) mixture. The organic layers were combined and dried using a SpeedVac concentrator (Thermo Fisher Scientific, Waltham MA). The dry residue was dissolved in ice-cold methanol and taken for LC-MS/MS analysis. LC-MS/MS analyses were performed using a Kinetex Phenyl-Hexyl column (50 mm×2.1 mm, 1.7 μm; Phenomenex, Torrance, CA) equilibrated with a water:acetonitrile mixture (4:1) containing 0.1% formic acid. Compounds were eluted by increasing the content of acetonitrile from 20% to 100% over 4 min and detected using the MRM (multiple reaction monitoring) mode.

[2] = system: CD4+ T cells from SMARTA triple reporter mice; assay: In vitro differentiation of CD4+ T regulatory cells, flow cytometry; format: cell-based, mouse; details: for Treg (FoxP3+CD25+) differentiation and/or survival: six days culture with TGFβ and IL-2, ATO, butyl-ATO, decyl-ATO up to 60 μM; for Teff cell IFNγ production: six days culture, IFNγ-GFP positive cells within live CD4+ T cells
Source text: FIG. 5. In vitro differentiation of CD4^+ T regulatory cells under varying concentrations of Mito-ATOs and controls. After six days of culture, cells were stained for flow cytometry analysis. (left) Live/dead staining to assess the percentage of live CD4+ T cells within the lymphocyte gate. (middle) Teff cell function is shown as the frequency of IFNγ-GFP positive cells within the live CD4^+ T cells. (right) The percentage of Treg cells is shown as the frequency of FoxP3^+CD25^+ cells within the live CD4^+ T cells.
After six days, cells were stained to assess viability, phenotype, and function using the flow cytometry.
Mice. SMARTA triple reporter mice were generated in the following manner. First, IL-10 and IL-21 double-reporter mice^33 were generated by cross-breeding IL-21tRFP mice^34-35 with 10 BiT mice (kindly provided by Dr. Casey Weaver, University of Alabama at Birmingham). Double reporter mice were then crossed with GREAT (interferon-gamma reporter with endogenous polyA transcript) mice^36 from Jackson Laboratory (Stock No. 017581). These triple-reporter mice were then crossed with SMARTA mice^37 (kindly provided by Dr. Dorian McGavern, National Institutes of Health). Mice were bred and maintained in a closed breeding facility, and mouse handling conformed to the requirements of the Medical College of Wisconsin Institutional Animal Care and Use Committee guidelines. All experimental protocols were approved by the Medical College of Wisconsin Institutional Animal Care and Use Committee.
Cell culture. To differentiate CD4^+ T cells into a T regulatory cell phenotype, splenocytes from SMARTA triple-reporter mice were processed and the red blood cell lysed using an ACK (ammonium-chloride-potassium) lysis buffer. The cells were then activated with 1 μg/mL […] peptide (GenScript, Piscataway, NJ) and 5 ng/mL TGF-β1 (Shenandoah Biotechnology, Inc., Warwick, PA). […] Cells were cultured for six days and split once cells reached confluency; cells were replenished with IL-2 and compound accordingly. After six days in culture, cells were stained to assess the viability and phenotypic analysis via flow cytometry. LIVE/DEAD fixable violet or aqua dead cell stain (Invitrogen, Carlsbad, CA) was used to assess cell viability. The following antibodies were used for flow cytometry staining: PercP anti-mouse CD4 (clone: GK1.5; BioLegend, San Diego, CA), APC/Cy7 anti-mouse CD25 (clone: PC61; BioLegend), and PE anti-mouse FOXP3 (clone: FJK-16S; eBioscience, San Diego, CA). Flow cytometry data were acquired using a BD LSRII (BD Biosciences, CA) flow cytometer and analysed using FlowJo (Treestar, Inc., Ashland, OR).

cyt bc1 [3] = target: cyt bc1 (Homo sapiens, UniProt P00156); details: mammalian cells; cited from earlier work
mitochondrial complex I [4] = target: mitochondrial complex I (Homo sapiens, UniProt O75251+O75306+P03886); assay: Mitochondrial complex I-driven oxygen consumption rate (Seahorse XF96) in permeabilized MiaPaCa-2 cells; format: cell-based; details: 24 h treatment
Description: FIG. 2. […] Relative complex I (1.5 mM malate, 10 mM pyruvate, 10 mM ADP)-driven OCR (left) and relative complex III (0.5 mM duroquinol, 10 mM ADP)-driven OCR (right) were monitored by XF-96 analyser. Either Rot (complex I inhibitor) or antimycin A (AA, complex III inhibitor) was acutely added and OCR assayed immediately. […] Dashed lines represent the fitting curves used for determination of the IC50 values.
(§2) Briefly, cells that were intact after treatments were immediately permeabilized using the Seahorse XF Plasma Membrane Permeabilizer (Agilent). The mitochondrial complex I-driven OCR was assayed in mannitol and sucrose buffer^31 containing 10 mM pyruvate and 1.5 mM malate (substrates for complex I) and 10 mM malonate (which inhibits complex II activities). The mitochondrial complex III-driven OCR was assayed in mannitol and sucrose buffer containing 0.5 mM duroquinol (substrate for complex III) and 1 μM Rot and 10 mM malonate (which inhibit both complex I and II activities). The mitochondrial complex-dependent oxygen consumption (calculated as Rot- or antimycin A-inhibitable OCR equals basal OCR less OCR after Rot or antimycin A injection) was plotted against concentrations to determine the IC50 values.

[5] = target: T1, mitochondrial complex III (Homo sapiens, UniProt P00156+P47985); assay: Mitochondrial complex III-driven oxygen consumption rate (Seahorse XF96) in permeabilized MiaPaCa-2 cells; format: cell-based; details: 24 h treatment
T1 construct: endogenous in cells; host or cells: MiaPaCa-2
Description: FIG. 2. Effects of Mito-ATO analogs on the oxygen consumption induced by mitochondrial complexes I and III. […] MiaPaCa-2 cells were treated with Mito-ATO for 24 h. Relative complex I (1.5 mM malate, 10 mM pyruvate, 10 mM ADP)-driven OCR (left) and relative complex III (0.5 mM duroquinol, 10 mM ADP)-driven OCR (right) were monitored by XF-96 analyser. Either Rot (complex I inhibitor) or antimycin A (AA, complex III inhibitor) was acutely added and OCR assayed immediately. […] Dashed lines represent the fitting curves used for determination of the IC50 values. (n.a., not applicable).
The mitochondrial complex activities were assessed by measuring the oxygen consumption rate (OCR) using the Seahorse technique.^6,11-4 MiaPaCa-2 cells were treated separately with Mito-ATO analogs at different concentrations for 24 h and OCR was measured.
as §2, with “Mitochondrial bioenergetic function was measured in real time using the Seahorse XF 96 Extracellular Flux Analyzer (Agilent, North Billerica, MA).^11-13,22 The OCR-based assessment of mitochondrial complex activities was carried out on acutely permeabilized cells in the presence of different mitochondrial substrates, i.e., pyruvate/malate, for complex I and duroquinol for complex III.^11,14,31,32 Rot, malonate, and antimycin A (Sigma-Aldrich, St. Louis, MO) were used as specific inhibitors of mitochondrial complexes I, II, and III, respectively. Briefly,” for “Briefly,”

[6] = system: LLC mouse lung cancer cells; assay: LLC cell proliferation, IncuCyte; format: cell-based
Source text: (§3) FIG. 3. […] Cell proliferation was monitored in real-time with the continuous presence of indicated treatments until the end of each experiment. The cell confluence (as control groups reach 98% confluency) is plotted against concentration. Dashed lines represent the fitting curves used to determine the IC50 values as indicated.
as §1

[7] = system: LKR13 mouse lung cancer cells; assay: LKR13 cell proliferation, IncuCyte; format: cell-based
Source text: as §3, §1

[8] = system: A549 human lung cancer cells; assay: A549 cell proliferation, IncuCyte; format: cell-based
Source text: as §3, §1

[9] = system: mitochondrial complex III; assay: Complex III-driven OCR in A549, LLC and LKR13 cells; format: cell-based, human, mouse; details: A549, LLC, LKR13 cells (FIG. 4)
Description: (§4) FIG. 4. […] Dashed lines represent the fitting curves used for determination of the IC50 values.
(§5) Mitochondrial bioenergetic function was measured in real time using the Seahorse XF 96 Extracellular Flux Analyzer (Agilent, North Billerica, MA).^11-13,22 The OCR-based assessment of mitochondrial complex activities was carried out on acutely permeabilized cells in the presence of different mitochondrial substrates, i.e., pyruvate/malate, for complex I and duroquinol for complex III.^11,14,31,32 Rot, malonate, and antimycin A (Sigma-Aldrich, St. Louis, MO) were used as specific inhibitors of mitochondrial complexes I, II, and III, respectively. Briefly, cells that were intact after treatments were immediately permeabilized using the Seahorse XF Plasma Membrane Permeabilizer (Agilent). The mitochondrial complex I-driven OCR was assayed in mannitol and sucrose buffer^31 containing 10 mM pyruvate and 1.5 mM malate (substrates for complex I) and 10 mM malonate (which inhibits complex II activities). […] The mitochondrial complex-dependent oxygen consumption (calculated as Rot- or antimycin A-inhibitable OCR equals basal OCR less OCR after Rot or antimycin A injection) was plotted against concentrations to determine the IC50 values.

[10] = system: MDA-MB-231 human breast cancer cells; assay: MDA-MB-231 cell proliferation, IncuCyte; format: cell-based; details: MDA-MB-231 cells
Source text: as §3, §1

mitochondrial complex I [11] = assay: Complex I-driven OCR in A549, LLC and LKR13 cells; format: cell-based, human, mouse; details: A549, LLC, LKR13 cells (FIG. 4)
Description: as §4, §5

Chain of mitochondrial complex I (Homo sapiens, UniProt O75251+O75306+P03886) (O75306 34-463): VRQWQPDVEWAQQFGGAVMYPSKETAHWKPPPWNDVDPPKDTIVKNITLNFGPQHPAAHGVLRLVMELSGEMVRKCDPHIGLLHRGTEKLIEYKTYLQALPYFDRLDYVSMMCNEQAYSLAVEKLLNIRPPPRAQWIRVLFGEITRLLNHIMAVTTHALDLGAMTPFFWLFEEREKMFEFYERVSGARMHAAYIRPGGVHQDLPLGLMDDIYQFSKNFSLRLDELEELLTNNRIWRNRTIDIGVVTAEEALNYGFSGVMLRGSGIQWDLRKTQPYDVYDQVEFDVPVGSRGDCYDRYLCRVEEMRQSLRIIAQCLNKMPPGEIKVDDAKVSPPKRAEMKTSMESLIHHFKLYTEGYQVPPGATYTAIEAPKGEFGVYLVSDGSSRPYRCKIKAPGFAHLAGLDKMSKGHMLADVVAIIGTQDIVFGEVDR
Chain of mitochondrial complex I (Homo sapiens, UniProt O75251+O75306+P03886) (O75251 39-213): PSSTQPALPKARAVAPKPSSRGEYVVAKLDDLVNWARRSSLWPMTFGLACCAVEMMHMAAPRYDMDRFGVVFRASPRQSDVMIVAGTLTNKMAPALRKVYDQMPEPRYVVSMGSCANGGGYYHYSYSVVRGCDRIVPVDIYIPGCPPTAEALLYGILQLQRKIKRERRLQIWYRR
Chain of mitochondrial complex I (Homo sapiens, UniProt O75251+O75306+P03886) (P03886 whole entry): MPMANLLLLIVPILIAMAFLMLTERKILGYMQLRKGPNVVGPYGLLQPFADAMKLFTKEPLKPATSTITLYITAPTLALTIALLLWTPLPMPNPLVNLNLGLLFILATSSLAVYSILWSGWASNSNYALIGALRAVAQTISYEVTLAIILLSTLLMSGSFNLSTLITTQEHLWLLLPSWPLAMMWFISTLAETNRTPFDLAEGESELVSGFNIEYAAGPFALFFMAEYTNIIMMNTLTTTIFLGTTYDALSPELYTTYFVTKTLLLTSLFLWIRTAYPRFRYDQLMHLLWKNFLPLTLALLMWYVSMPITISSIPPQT
Chain of cyt bc1 (Homo sapiens, UniProt P00156) (P00156 whole entry): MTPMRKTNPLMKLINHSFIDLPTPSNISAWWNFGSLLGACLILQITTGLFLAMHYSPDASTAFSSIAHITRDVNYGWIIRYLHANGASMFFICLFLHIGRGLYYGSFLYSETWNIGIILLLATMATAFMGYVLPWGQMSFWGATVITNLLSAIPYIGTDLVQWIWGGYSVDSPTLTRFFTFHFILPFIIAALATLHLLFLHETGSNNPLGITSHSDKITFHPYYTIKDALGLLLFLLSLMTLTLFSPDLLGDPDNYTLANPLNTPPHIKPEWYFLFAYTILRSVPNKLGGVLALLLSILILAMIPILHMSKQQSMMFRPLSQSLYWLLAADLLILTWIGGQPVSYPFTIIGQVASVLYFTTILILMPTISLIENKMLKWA

Compound: O=C1C(O)=C([C@H]2CC[C@H](c3ccc(Cl)cc3)CC2)C(=O)c2ccccc21 [ATO, trans-2-[4-(4-chlorophenyl)cyclohexyl]-3-hydroxy-1,4-naphthalene-dione]
- increase in IC50 for ATO caused by mutation at Q0 site (cyt bc1 [1]): ~9,000 fold
- IC50 (MiaPaCa-2 cells; MIA PaCa-2, read-out: IC50, inhibition of cell proliferation (cell confluence)): 18000 nM
- cellular uptake / intracellular accumulation (MiaPaCa-2 and A549 cells): uptake was considerably lower and did not accumulate in cancer cells over a 24 h period
- Treg (FoxP3+CD25+) differentiation and/or survival [2]: did not inhibit Treg differentiation and/or survival
- IC50 for inhibition of cyt bc1 (cyt bc1 [3]): micromolar range

Compound: CCCCOC1=C([C@H]2CC[C@H](c3ccc(Cl)cc3)CC2)C(=O)c2ccccc2C1=O [Butyl-ATO, reference compound]
- antiproliferative effect compared with corresponding Mito-ATO analog (MiaPaCa-2 cells): much less effective than their corresponding Mito-ATO analogs
- Treg (FoxP3+CD25+) differentiation and/or survival [2]: did not inhibit Treg differentiation and/or survival

Compound: CCCCCCCCCCOC1=C([C@H]2CC[C@H](c3ccc(Cl)cc3)CC2)C(=O)c2ccccc2C1=O [Decyl-ATO, reference compound]
- antiproliferative effect compared with corresponding Mito-ATO analog (MiaPaCa-2 cells): much less effective than their corresponding Mito-ATO analogs
- Treg (FoxP3+CD25+) differentiation and/or survival [2]: did not inhibit Treg differentiation and/or survival

- inhibition of complex III-induced oxygen consumption [5]: potently inhibit
Compound: O=C1C(OCCCC[P+](c2ccccc2)(c2ccccc2)c2ccccc2)=C([C@H]2CC[C@H](c3ccc(Cl)cc3)CC2)C(=O)c2ccccc21 [Mito4-ATO]
- inhibition of complex I-induced oxygen consumption (mitochondrial complex I [4]): potently inhibit
- Treg (FoxP3+CD25+) differentiation and/or survival [2]: inhibited Foxp3^+ Treg differentiation and/or survival
- Teff cell IFNγ production [2]: promoted Teff cell IFNγ production in a dose-dependent manner

- inhibition of complex III-induced oxygen consumption [5]: potently inhibit
- IC50 ([5]; duroquinol, antimycin A-inhibitable OCR, read-out: IC50 to inhibit oxygen consumption by complex III): 780 nM
- cellular uptake / intracellular accumulation (MiaPaCa-2 and A549 cells): accumulated inside the cells with time
Compound: O=C1C(OCCCCCCCCCC[P+](c2ccccc2)(c2ccccc2)c2ccccc2)=C([C@H]2CC[C@H](c3ccc(Cl)cc3)CC2)C(=O)c2ccccc21 [Mito10-ATO]
- effect on cell proliferation [6]: effective at halting cell proliferation
- inhibition of complex I-induced oxygen consumption (mitochondrial complex I [4]): potently inhibit
- effect on cell proliferation [7]: effective at halting cell proliferation
- effect on cell proliferation [8]: effective at halting cell proliferation
- inhibition of complex III-induced oxygen consumption [9]: inhibited both mitochondrial complex I- and III-induced oxygen consumption
- Treg (FoxP3+CD25+) differentiation and/or survival [2]: inhibited Foxp3^+ Treg differentiation and/or survival
- Teff cell IFNγ production [2]: promoted Teff cell IFNγ production in a dose-dependent manner
- effect on cell proliferation [10]: effective at halting cell proliferation
- inhibition of complex I-induced oxygen consumption (mitochondrial complex I [11]): inhibited both mitochondrial complex I- and III-induced oxygen consumption

Compound: O=C1C(OCCCCCCCCCCCC[P+](c2ccccc2)(c2ccccc2)c2ccccc2)=C([C@H]2CC[C@H](c3ccc(Cl)cc3)CC2)C(=O)c2ccccc21 [Mito12-ATO]
- inhibition of complex I-induced oxygen consumption (mitochondrial complex I [4]): inhibited only the complex I-induced oxygen consumption
- inhibition of complex III-induced oxygen consumption [5]: did not inhibit
- IC50 (MiaPaCa-2 cells; MIA PaCa-2, MiaPaCa-2 pancreatic cancer cells, continuous treatment, read as control reaches 98% confluency, read-out: IC50, inhibition of cell proliferation (cell confluence)): 350 nM
- Treg (FoxP3+CD25+) differentiation and/or survival [2]: did not appreciably inhibit Treg differentiation

- inhibition of complex III-induced oxygen consumption [5]: did not inhibit
Compound: O=C1C(OCCCCCCCCCCCCCCCC[P+](c2ccccc2)(c2ccccc2)c2ccccc2)=C([C@H]2CC[C@H](c3ccc(Cl)cc3)CC2)C(=O)c2ccccc21 [Mito16-ATO]
- inhibition of complex I-induced oxygen consumption (mitochondrial complex I [4]): inhibited only the complex I-induced oxygen consumption
